From patent US20250312499A1, “KISSPEPTIN RECEPTOR (KISS1R) TARGETED THERAPEUTICS AND USES THEREOF” (priority 2024, published 2025)
Numbered stars: 1 amine (or outer) side, 2 acyl side, 3 side chain; on linkers, the order of the positions; unused ones are H or OH. Square brackets hold non-standard residues; d marks the D form. Peptide text beside a SMILES is read from it. * marks the point of attachment. DOTA = O=C(O)CN1CCN(CC(=O)O)CCN(CC(=O)*)CCN(CC(=O)O)CC1; Gly(N-(3-F-4-Me-benzyl)) = Cc1ccc(CNCC(=O)*)cc1F; Butanoyl(4-(4-I-phenyl)) = O=C(CCCc1ccc(I)cc1)*; Butanoyl(4-(4-MePh)) = Cc1ccc(CCCC(=O)*)cc1; Api(1-amidino) = N=C(N)N1CCC(N)(C(=O)O)CC1; Hydrocinnamoyl(4-Me) = Cc1ccc(CCC(=O)*)cc1; d(γGlu) = O=C(O)[C@@H](CCC(=O)[*:2])N[*:1]; Hydrocinnamoyl(4-I) = O=C(CCc1ccc(I)cc1)*; Phe(4-CN) = N#Cc1ccc(C[C@H](N)C(=O)O)cc1; X3 = CNC(=N)N1CCC(N[*:1])(C(=O)[*:2])CC1; 2Nal = N[C@@H](Cc1ccc2ccccc2c1)C(=O)O; d2Nal = N[C@H](Cc1ccc2ccccc2c1)C(=O)O; Hyp = O=C(O)[C@@H]1C[C@@H](O)CN1; d4Pal = N[C@H](Cc1ccncc1)C(=O)O; Cha = N[C@@H](CC1CCCCC1)C(=O)O; Api = NC1(C(=O)O)CCNCC1; PEG2 = NCCOCCOCCC(=O)O; Ahx = NCCCCCC(=O)O; azaGly = NNC(=O)O

target: human kisspeptin receptor (Homo sapiens (Human), UniProt Q969F8); assay: Human KISS1R binding assay (membrane competition binding); settings: 90 min at room temperature; competition with 0.2 nM [125I]-metastin (45-54); Flp-In T-Rex 293 kisspeptin membranes; metal complexes nonradioactive Ga, In, Lu; read-out: hKiSSR Binding Ki (90 min)
Method in brief: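 Membranes from tetracycline-induced (48 h) Flp-In T-Rex 293 cells expressing receptor, 5–10 μg, incubated 90 min at room temperature with 0.2 nM [125I]-metastin (45-54) and competitor (typically 0–10,000 nM) in Tris/Mg/Ca/EGTA/0.1% BSA, pH 7.4. Filtration, washing, counting; Ki by non-linear regression.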

Sequence of human kisspeptin receptor (Q969F8 whole entry): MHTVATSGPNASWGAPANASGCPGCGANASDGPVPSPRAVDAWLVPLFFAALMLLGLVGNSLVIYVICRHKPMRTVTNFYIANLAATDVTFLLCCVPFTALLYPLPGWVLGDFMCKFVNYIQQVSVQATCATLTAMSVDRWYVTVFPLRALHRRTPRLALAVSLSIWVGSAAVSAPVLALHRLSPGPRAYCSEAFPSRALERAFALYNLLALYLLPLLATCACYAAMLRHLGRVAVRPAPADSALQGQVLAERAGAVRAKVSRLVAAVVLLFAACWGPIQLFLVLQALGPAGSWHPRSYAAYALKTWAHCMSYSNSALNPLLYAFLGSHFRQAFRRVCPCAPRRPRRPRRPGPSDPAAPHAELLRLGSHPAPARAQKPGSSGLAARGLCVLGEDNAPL

Ki	SMILES
< 0.01 µM	Cc1ccc(CNCC(=O)N2CCC(NC(=O)[C@H](CC(C)C)NC(=O)NNC(=O)[C@H](Cc3ccccc3)NC(=O)CCCCCNC(=O)[C@H](Cc3ccc4ccccc4c3)NC(=O)[C@H](Cc3ccc(O)cc3)NC(=O)CNC(=O)CN3CCN(CC(=O)O)CCN(CC(=O)O)CCN(CC(=O)O)CC3)(C(=O)N[C@@H](Cc3c[nH]c4ccccc34)C(N)=O)CC2)cc1F [Compound 307] ({DOTA}-GY[2Nal][Ahx]F[azaGly]L[Api](Gly(N-(3-F-4-Me-benzyl)))W-NH2)
< 0.01 µM	Cc1ccc(CCCC(=O)NCCCC[C@@H](NC(=O)CCCCCNC(=O)CN2CCN(CC(=O)O)CCN(CC(=O)O)CCN(CC(=O)O)CC2)C(=O)N[C@H](Cc2ccc(O)cc2)C(=O)N[C@H](Cc2ccc3ccccc3c2)C(=O)N[C@@H](CC(N)=O)C(=O)N[C@H](C(=O)N[C@@H](Cc2ccccc2)C(=O)NNC(=O)N[C@@H](CC(C)C)C(=O)NC2(C(=O)N[C@@H](Cc3ccccc3)C(N)=O)CCN(C(=N)N)CC2)[C@@H](C)O)cc1 [Compound 309] ({DOTA-Ahx}-[dK](Butanoyl(4-(4-MePh)))[dY][d2Nal]NTF[azaGly]L[Api(1-amidino)]F-NH2)
< 0.01 µM	CC(C)C[C@H](NC(=O)NNC(=O)[C@H](Cc1ccccc1)NC(=O)[C@@H](NC(=O)[C@H](CC(N)=O)NC(=O)[C@@H](Cc1ccc2ccccc2c1)NC(=O)[C@@H](Cc1ccc(O)cc1)NC(=O)[C@@H](CCCCNC(=O)CCCc1ccc(I)cc1)NC(=O)CCCCCNC(=O)CN1CCN(CC(=O)O)CCN(CC(=O)O)CCN(CC(=O)O)CC1)[C@@H](C)O)C(=O)NC1(C(=O)N[C@@H](Cc2ccccc2)C(N)=O)CCN(C(=N)N)CC1 [Compound 310] ({DOTA-Ahx}-[dK](Butanoyl(4-(4-I-phenyl)))[dY][d2Nal]NTF[azaGly]L[Api(1-amidino)]F-NH2)
< 0.01 µM	CC(C)C[C@H](NC(=O)NNC(=O)[C@H](Cc1ccccc1)NC(=O)[C@@H](NC(=O)[C@H](CC(N)=O)NC(=O)[C@@H]1C[C@@H](O)CN1C(=O)[C@@H](Cc1ccc(O)cc1)NC(=O)CCCCCNC(=O)CN1CCN(CC(=O)O)CCN(CC(=O)O)CCN(CC(=O)O)CC1)[C@@H](C)O)C(=O)NC1(C(=O)N[C@@H](Cc2c[nH]c3ccccc23)C(N)=O)CCN(C(=N)N)CC1 [Compound 311] ({DOTA-Ahx}-[dY][Hyp]NTF[azaGly]L[Api(1-amidino)]W-NH2)
< 0.01 µM	Cc1ccc(CNCC(=O)N2CCC(NC(=O)[C@H](CC(C)C)NC(=O)NNC(=O)[C@H](CC3CCCCC3)NC(=O)[C@@H](NC(=O)[C@H](CC(N)=O)NC(=O)CCCCCNC(=O)CN3CCN(CC(=O)O)CCN(CC(=O)O)CCN(CC(=O)O)CC3)[C@@H](C)O)(C(=O)N[C@@H](Cc3c[nH]c4ccccc34)C(N)=O)CC2)cc1F [Compound 313] ({DOTA-Ahx}-NT[Cha][azaGly]L[Api](Gly(N-(3-F-4-Me-benzyl)))W-NH2)
< 0.01 µM	Cc1ccc(CNCC(=O)N2CCC(NC(=O)[C@H](CC(C)C)NC(=O)NNC(=O)[C@H](CC3CCCCC3)NC(=O)[C@@H](NC(=O)[C@H](CC(N)=O)NC(=O)[C@@H](Cc3ccncc3)NC(=O)CCCCCNC(=O)CN3CCN(CC(=O)O)CCN(CC(=O)O)CCN(CC(=O)O)CC3)[C@@H](C)O)(C(=O)N[C@@H](Cc3c[nH]c4ccccc34)C(N)=O)CC2)cc1F [Compound 314] ({DOTA-Ahx}-[d4Pal]NT[Cha][azaGly]L[Api](Gly(N-(3-F-4-Me-benzyl)))W-NH2)
< 0.01 µM	Cc1ccc(CNCC(=O)N2CCC(NC(=O)[C@H](CC(C)C)NC(=O)NNC(=O)[C@H](CC3CCCCC3)NC(=O)[C@@H](NC(=O)[C@H](CC(N)=O)NC(=O)[C@@H](Cc3ccncc3)NC(=O)[C@@H](Cc3ccc(O)cc3)NC(=O)CN3CCN(CC(=O)O)CCN(CC(=O)O)CCN(CC(=O)O)CC3)[C@@H](C)O)(C(=O)N[C@@H](Cc3c[nH]c4ccccc34)C(N)=O)CC2)cc1F [Compound 315] ({DOTA}-[dY][d4Pal]NT[Cha][azaGly]L[Api](Gly(N-(3-F-4-Me-benzyl)))W-NH2)
< 0.01 µM	Cc1ccc(CNCC(=O)N2CCC(NC(=O)[C@H](CC(C)C)NC(=O)NNC(=O)[C@H](CC3CCCCC3)NC(=O)[C@@H](NC(=O)[C@H](CC(N)=O)NC(=O)[C@@H](Cc3ccncc3)NC(=O)[C@@H](Cc3ccc(O)cc3)NC(=O)CCCCCNC(=O)CN3CCN(CC(=O)O)CCN(CC(=O)O)CCN(CC(=O)O)CC3)[C@@H](C)O)(C(=O)N[C@@H](Cc3c[nH]c4ccccc34)C(N)=O)CC2)cc1F [Compound 316] ({DOTA-Ahx}-[dY][d4Pal]NT[Cha][azaGly]L[Api](Gly(N-(3-F-4-Me-benzyl)))W-NH2)
< 0.01 µM	CC(C)C[C@H](NC(=O)NNC(=O)[C@H](CC1CCCCC1)NC(=O)[C@@H](NC(=O)[C@H](CC(N)=O)NC(=O)[C@@H](Cc1ccc2ccccc2c1)NC(=O)[C@@H](Cc1ccc(O)cc1)NC(=O)CCCCCNC(=O)CN1CCN(CC(=O)O)CCN(CC(=O)O)CCN(CC(=O)O)CC1)[C@@H](C)O)C(=O)NC1(C(=O)N[C@@H](Cc2c[nH]c3ccccc23)C(N)=O)CCN(C(=N)N)CC1 [Compound 317] ({DOTA-Ahx}-[dY][d2Nal]NT[Cha][azaGly]L[Api(1-amidino)]W-NH2)
< 0.01 µM	Cc1ccc(CNCC(=O)N2CCC(NC(=O)[C@H](CC(C)C)NC(=O)NNC(=O)[C@H](CC3CCCCC3)NC(=O)[C@@H](NC(=O)[C@H](CC(N)=O)NC(=O)[C@@H](Cc3ccc4ccccc4c3)NC(=O)[C@@H](Cc3ccc(O)cc3)NC(=O)CN3CCN(CC(=O)O)CCN(CC(=O)O)CCN(CC(=O)O)CC3)[C@@H](C)O)(C(=O)N[C@@H](Cc3c[nH]c4ccccc34)C(N)=O)CC2)cc1F [Compound 318] ({DOTA}-[dY][d2Nal]NT[Cha][azaGly]L[Api](Gly(N-(3-F-4-Me-benzyl)))W-NH2)
> 0.1 µM	CNC(=N)N1CCC(NC(=O)[C@H](CC(C)C)NC(=O)NNC(=O)[C@H](Cc2ccccc2)NC(=O)[C@@H](NC(=O)[C@H](CC(N)=O)NC(=O)[C@@H](Cc2ccc3ccccc3c2)NC(=O)[C@@H](Cc2ccc(O)cc2)NC(=O)CCCCCNC(=O)CN2CCN(CC(=O)O)CCN(CC(=O)O)CCN(CC(=O)O)CC2)[C@@H](C)O)(C(=O)N[C@H](Cc2c[nH]c3ccccc23)C(N)=O)CC1 [Compound 319] ({DOTA-Ahx}-[dY][d2Nal]NTF[azaGly]L[X3][dW]-NH2)
< 0.01 µM	CC(C)C[C@H](NC(=O)NNC(=O)[C@H](Cc1ccccc1)NC(=O)[C@@H](NC(=O)[C@H](CC(N)=O)NC(=O)[C@H](CCCCNC(=O)CN1CCN(CC(=O)O)CCN(CC(=O)O)CCN(CC(=O)O)CC1)NC(=O)[C@@H](Cc1ccc(O)cc1)NC(=O)CC[C@@H](NC(=O)CCc1ccc(I)cc1)C(=O)O)[C@@H](C)O)C(=O)NC1(C(=O)N[C@@H](Cc2c[nH]c3ccccc23)C(N)=O)CCN(C(=N)N)CC1 [Compound 320] ({Hydrocinnamoyl(4-I)-d(γGlu)}-[dY]K(DOTA)NTF[azaGly]L[Api(1-amidino)]W-NH2)
< 0.01 µM	CC(C)C[C@H](NC(=O)NNC(=O)[C@H](Cc1ccccc1)NC(=O)[C@@H](NC(=O)[C@H](CC(N)=O)NC(=O)[C@H](CCCCNC(=O)CN1CCN(CC(=O)O)CCN(CC(=O)O)CCN(CC(=O)O)CC1)NC(=O)[C@@H](Cc1ccc(O)cc1)NC(=O)CCc1ccc(I)cc1)[C@@H](C)O)C(=O)NC1(C(=O)N[C@@H](Cc2c[nH]c3ccccc23)C(N)=O)CCN(C(=N)N)CC1 [Compound 321] ({Hydrocinnamoyl(4-I)}-[dY]K(DOTA)NTF[azaGly]L[Api(1-amidino)]W-NH2)
< 0.01 µM	Cc1ccc(CCC(=O)NCCOCCOCCC(=O)N[C@H](Cc2ccc(O)cc2)C(=O)N[C@@H](CCCCNC(=O)CN2CCN(CC(=O)O)CCN(CC(=O)O)CCN(CC(=O)O)CC2)C(=O)N[C@@H](CC(N)=O)C(=O)N[C@H](C(=O)N[C@@H](Cc2ccccc2)C(=O)NNC(=O)N[C@@H](CC(C)C)C(=O)NC2(C(=O)N[C@@H](Cc3ccccc3)C(N)=O)CCN(C(=N)N)CC2)[C@@H](C)O)cc1 [Compound 322] ({Hydrocinnamoyl(4-Me)-PEG2}-[dY]K(DOTA)NTF[azaGly]L[Api(1-amidino)]F-NH2)
< 0.01 µM	CC(C)C[C@H](NC(=O)NNC(=O)[C@H](Cc1ccccc1)NC(=O)[C@@H](NC(=O)[C@H](CC(N)=O)NC(=O)[C@H](CCCCNC(=O)CN1CCN(CC(=O)O)CCN(CC(=O)O)CCN(CC(=O)O)CC1)NC(=O)[C@@H](Cc1ccc(O)cc1)NC(=O)CCOCCOCCNC(=O)CCc1ccc(I)cc1)[C@@H](C)O)C(=O)NC1(C(=O)N[C@@H](Cc2ccccc2)C(N)=O)CCN(C(=N)N)CC1 [Compound 323] ({Hydrocinnamoyl(4-I)-PEG2}-[dY]K(DOTA)NTF[azaGly]L[Api(1-amidino)]F-NH2)
< 0.01 µM	CC(C)C[C@H](NC(=O)NNC(=O)[C@H](Cc1ccccc1)NC(=O)[C@@H](NC(=O)[C@H](CC(N)=O)NC(=O)[C@H](CCCCNC(=O)CN1CCN(CC(=O)O)CCN(CC(=O)O)CCN(CC(=O)O)CC1)NC(=O)[C@@H](Cc1ccc(O)cc1)NC(=O)CCOCCOCCNC(=O)CCc1ccc(I)cc1)[C@@H](C)O)C(=O)NC1(C(=O)N[C@@H](Cc2ccc(O)cc2)C(N)=O)CCN(C(=N)N)CC1 [Compound 324] ({Hydrocinnamoyl(4-I)-PEG2}-[dY]K(DOTA)NTF[azaGly]L[Api(1-amidino)]Y-NH2)
< 0.01 µM	CC(C)C[C@H](NC(=O)NNC(=O)[C@H](Cc1ccccc1)NC(=O)[C@@H](NC(=O)[C@H](CC(N)=O)NC(=O)[C@H](CCCCNC(=O)CN1CCN(CC(=O)O)CCN(CC(=O)O)CCN(CC(=O)O)CC1)NC(=O)[C@@H](Cc1ccc(O)cc1)NC(=O)CCOCCOCCNC(=O)CCc1ccc(I)cc1)[C@@H](C)O)C(=O)NC1(C(=O)N[C@@H](Cc2ccc(C#N)cc2)C(N)=O)CCN(C(=N)N)CC1 [Compound 325] ({Hydrocinnamoyl(4-I)-PEG2}-[dY]K(DOTA)NTF[azaGly]L[Api(1-amidino)][Phe(4-CN)]-NH2)
< 0.01 µM	Cc1ccc(CCC(=O)NCCOCCOCCC(=O)N[C@H](Cc2ccc(O)cc2)C(=O)N[C@@H](CCCCNC(=O)CN2CCN(CC(=O)O)CCN(CC(=O)O)CCN(CC(=O)O)CC2)C(=O)N[C@@H](CC(N)=O)C(=O)N[C@H](C(=O)N[C@@H](CC2CCCCC2)C(=O)NNC(=O)N[C@@H](CC(C)C)C(=O)NC2(C(=O)N[C@@H](Cc3c[nH]c4ccccc34)C(N)=O)CCN(C(=N)N)CC2)[C@@H](C)O)cc1 [Compound 326] ({Hydrocinnamoyl(4-Me)-PEG2}-[dY]K(DOTA)NT[Cha][azaGly]L[Api(1-amidino)]W-NH2)
